Measurements published in PMC6225228, “Design, Synthesis and Evaluation of N-pyrazinylbenzamides as Potential Antimycobacterial Agents” (Molecules : A Journal of Synthetic Chemistry and Natural …, 2018).
In brackets after ≈: the same amount, converted by molar mass. Read-outs that look alike come from different tables or passages of the source.

Tests used:
[1] = system: Mycobacterium tuberculosis H37Rv CNCTC My 331/88 (ATCC 27294); assay: Antimycobacterial microdilution MABA, M. tuberculosis; assay type: cell-based; conditions: for Mtb H37Rv ATCC 27294 MIC: Middlebrook 7H9 with OADC growth supplement, pH = 6.6, MABA; for MIC: Mycobacterium tuberculosis, read-out: Mtb H37Rv ATCC 27294 MIC, Middlebrook 7H9 with OADC growth supplement, pH = 6.6, MABA
[2] = system: M. kansasii CNCTC My 235/80 (ATCC 12478); assay: Antimycobacterial microdilution MABA, M. kansasii; assay type: cell-based, Mycobacterium kansasii; conditions: Mycobacterium kansasii, ATCC12478, pH 6.6, read-out: M. kans. ATCC 12478 MIC, Middlebrook 7H9 with OADC, pH 6.6, MABA
[3] = system: M. avium ssp. avium CNCTC My 80/72 (ATCC 15769); assay: Antimycobacterial microdilution MABA, M. avium; assay type: cell-based, Mycobacterium avium; conditions: Mycobacterium avium, ATCC15769, pH 6.6, read-out: M. avium ATCC 15769 MIC
[4] = system: Mycobacterium smegmatis CCM 4622 (ATCC 607); assay: Antimycobacterial microdilution, M. smegmatis; assay type: cell-based; conditions: Mycolicibacterium smegmatis, read-out: M. smeg. ATCC 607 MIC
[5] = system: Staphylococcus aureus CCM 4516/08; assay: Antibacterial microdilution broth, SA; assay type: cell-based; conditions: Staphylococcus aureus
[6] = system: Staphylococcus aureus H 5996/08 methicillin resistant; assay: microbe, parasite or virus in culture; assay type: cell-based; conditions: Staphylococcus aureus, MRSA, read-out: MIC MRSA
[7] = system: Staphylococcus epidermidis H 6966/08; assay: Antibacterial microdilution broth, SE; assay type: cell-based; conditions: Staphylococcus epidermidis, read-out: MIC SE
[8] = system: Enterococcus sp. J 14365/08; assay: Antibacterial microdilution broth, EF; assay type: cell-based; conditions: Enterococcus, read-out: MIC EF
[9] = system: Escherichia coli CCM 4517; assay: Antibacterial microdilution broth, EC; assay type: cell-based; conditions: Escherichia coli, read-out: MIC EC
[10] = system: Pseudomonas aeruginosa CCM 1961; assay: Antibacterial microdilution broth, PA; assay type: cell-based; conditions: Pseudomonas aeruginosa, read-out: MIC PA
[11] = system: Candida albicans ATCC 44859; assay: Antifungal microdilution broth, CA; assay type: cell-based; conditions: Candida albicans, read-out: MIC CA
[12] = system: Candida tropicalis 156; assay: Antifungal microdilution broth, CT; assay type: cell-based; conditions: read-out: MIC CT
[13] = system: Candida krusei E28; assay: Antifungal microdilution broth, CK; assay type: cell-based; conditions: Pichia kudriavzevii, read-out: MIC CK
[14] = system: Candida glabrata 20/I; assay: Antifungal microdilution broth, CG; assay type: cell-based; conditions: Nakaseomyces glabratus, 20/I, read-out: MIC CG
[15] = system: Trichosporon asahii 1188; assay: Antifungal microdilution broth, TA; assay type: cell-based; conditions: read-out: MIC TA
[16] = system: Aspergillus fumigatus 231; assay: Antifungal microdilution broth, AF; assay type: cell-based; conditions: read-out: MIC AF
[17] = system: Lichtheimia corymbifera 272; assay: Antifungal microdilution broth, LC; assay type: cell-based; conditions: read-out: MIC LC
[18] = system: Trichophyton interdigitale 445; assay: Antifungal microdilution broth, TI; assay type: cell-based; conditions: read-out: MIC TI
[19] = CCM4516, 24 h, read-out: MIC SA, 24 h
[20] = CCM4516, 48 h, read-out: MIC SA, 48 h
[21] = Trichosporon asahii, 1188, 24 h
[22] = Trichosporon asahii, 1188, 48 h
[23] = Aspergillus fumigatus, 231, 24 h
[24] = Aspergillus fumigatus, 231, 48 h
[25] = Lichtheimia corymbifera, 272, 24 h
[26] = Lichtheimia corymbifera, 272, 48 h
[27] = Trichophyton interdigitale, 445, 72 h
[28] = Trichophyton interdigitale, 445, 120 h

Compound	Mtb H37Rv ATCC 27294 MIC [1] [µg/mL]	MIC [1] [µg/mL]	MIC [2] [µg/mL]	MIC [3] [µg/mL]	MIC [4] [µg/mL]	MIC [5, 19] [µM]	MIC [5, 20] [µM]	MIC ([6]; 24 h) [µM]	MIC ([6]; 48 h) [µM]	MIC ([7]; H6966/08, 24 h) [µM]	MIC ([7]; H6966/08, 48 h) [µM]	MIC ([8]; SP.J14365/08, 24 h) [µM]	MIC ([8]; SP.J14365/08, 48 h) [µM]	MIC ([9]; CCM4517, 24 h) [µM]	MIC ([9]; CCM4517, 48 h) [µM]	MIC ([10]; CCM1961, 72 h) [µM]	MIC ([10]; CCM1961, 120 h) [µM]	MIC ([11]; ATCC44859, 24 h) [µM]	MIC ([11]; ATCC44859, 48 h) [µM]	MIC ([12]; Candida tropicalis, 156, 24 h) [µM]	further results
O=C(Nc1cncc(Cl)n1)c1cccc(Cl)c1 [Compound 3k]	>100	> 100	> 100	> 100	≥ 500	> 125	> 125	> 125	> 125	> 125	> 125	> 125	> 125	> 125	> 125	> 125	> 125	> 125	> 125	> 125	MIC ([12]; Candida tropicalis, 156, 48 h): > 125 µM; MIC ([13]; E28, 24 h): > 125 µM; MIC ([13]; E28, 48 h): > 125 µM; MIC ([14]; 24 h): > 125 µM; MIC ([14]; 48 h): > 125 µM; MIC [15, 21]: > 125 µM; MIC [15, 22]: > 125 µM; MIC [16, 23]: > 125 µM; MIC [16, 24]: > 125 µM; MIC [17, 25]: > 125 µM; MIC [17, 26]: > 125 µM; MIC [18, 27]: > 125 µM; MIC [18, 28]: > 125 µM; melting point: 166 to 167.1 °C
Cc1ccc(C(=O)Nc2cnccn2)cc1 [Compound 1h]	>100	> 100	> 100	> 100	≥ 500	> 500	> 500	> 500	> 500	500 (≈ 107 µg/mL)	500 (≈ 107 µg/mL)	> 500	> 500	> 500	> 500	500 (≈ 107 µg/mL)	500 (≈ 107 µg/mL)	500 (≈ 107 µg/mL)	500 (≈ 107 µg/mL)	> 500	MIC ([12]; Candida tropicalis, 156, 48 h): > 500 µM; MIC ([13]; E28, 24 h): > 500 µM; MIC ([13]; E28, 48 h): > 500 µM; MIC ([14]; 24 h): > 500 µM; MIC ([14]; 48 h): > 500 µM; MIC [15, 21]: > 500 µM; MIC [15, 22]: > 500 µM; MIC [16, 23]: > 500 µM; MIC [16, 24]: > 500 µM; MIC [17, 25]: > 500 µM; MIC [17, 26]: > 500 µM; MIC [18, 27]: > 500 µM; MIC [18, 28]: > 500 µM; melting point: 163.3 to 166 °C
